Read-outs that look alike come from different tables or passages of the source.

Test [1] deals with Human Cot (Homo sapiens (Human), UniProt P41279). Kind of test: High Throughput Cot Biochemical Assay.
The test system of test [2] is TNFα. Kind of test: Cot Monocyte TNFα Cell Based Assay.
[3] abbreviates: read-out: IC50 HTRF, Cot HTRF (TR-FRET) biochemical assay.
[4] abbreviates: read-out: EC50 TNF, LPS-stimulated human monocytes, TNFα.
Where [5] appears, read: IC50 HTRF, Cot HTRF (TR-FRET KinEASE) biochemical assay, 400 μM ATP.
Where [6] appears, read: Homo sapiens, Monocyte, read-out: EC50 TNF, LPS-stimulated human monocytes, TNFα TR-FRET.
The mark [7] stands for this setting: read-out: IC50 HTRF, Cot HTRF (TR-FRET KinEASE) biochemical assay, 400 μM ATP.
Where [8] appears, read: read-out: EC50 TNF, LPS-stimulated human monocytes, TNFα TR-FRET.
[9] abbreviates: IC50 HTRF, Cot HTRF (TR-FRET) biochemical assay.
Where [10] appears, read: Homo sapiens, Monocyte, read-out: EC50 TNF, LPS-stimulated human monocytes, TNFα.

Human Cot, sequence (P41279 30-397): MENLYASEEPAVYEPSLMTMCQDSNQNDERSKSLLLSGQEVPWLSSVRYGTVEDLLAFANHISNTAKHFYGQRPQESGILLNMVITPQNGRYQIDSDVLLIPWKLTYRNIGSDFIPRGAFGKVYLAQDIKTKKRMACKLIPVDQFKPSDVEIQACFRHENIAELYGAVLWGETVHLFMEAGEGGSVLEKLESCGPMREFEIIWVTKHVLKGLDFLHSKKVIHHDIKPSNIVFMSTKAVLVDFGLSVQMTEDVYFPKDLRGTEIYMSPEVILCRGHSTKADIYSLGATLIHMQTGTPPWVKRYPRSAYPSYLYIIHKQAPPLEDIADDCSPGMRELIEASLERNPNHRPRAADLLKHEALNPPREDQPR

On to `CC(C)(C)CNc1c(C#N)cnc2c(C#N)cc(N[C@H](c3cn(C4(C(F)(F)F)CC4)nn3)c3ccc(F)c4cnccc34)cc12` [Example 626], for which the IC50 in test [1] (setting [3]) stood at 5 nM. For the same compound, the concentration for a half-maximal effect (EC50) in test [2] (setting [4]) amounted to 35 nM.
Take `Cn1ccc2c([C@H](Nc3cc(Cl)c4ncc(C#N)c(NCC(C)(C)C)c4c3)c3cn(C45CCC(CC4)CC5)nn3)cccc2c1=O` [Example 939, (S)-6-(((1-(bicyclo[2.2.2]octan-1-yl)-1H-1,2,3-triazol-4-yl)(2-methyl-1-oxo-1,2-dihydroisoquinolin-5-yl)methyl)amino)-8-chloro-4-(neopentylamino)quinoline-3-carbonitrile]: in test [1] (setting [5]), half-maximal inhibition (IC50) required 18 nM. Moreover, in test [2] (setting [6]), the EC50 was 104 nM.
“(S)-6-(((1-(1,1′-bi(cyclopropan)]-1-yl)-1H- 1,2,3-triazol-4-yl)(1-methoxylsoquinolin- 5-yl)methyl)amino)-8-chloro-4- (neopentylamino)quinoline-3-carbonitrile [Example 931]”: the IC50 in test [1] (setting [7]) turned out to be 10 nM. Moreover, the EC50 in test [2] (setting [8]) is 134 nM.
Compound `Cc1ncsc1[C@H](Nc1cc(Cl)c2ncc(C#N)c(N[C@H](C)c3ccccc3)c2c1)c1c[nH]nn1` [Example 243, 8-chloro-6-(((R)-(4-methylthiazol-5-yl)(1H-1,2,3-triazol-4-yl)methyl)amino)-4-(((R)-1-phenylethyl)amino)quinoline-3-carbonitrile] came in with an IC50 in test [1] (setting [9]) of 41 nM. The EC50 in test [2] (setting [10]) came to 9490 nM.
The corresponding values for `CCN1CCC(n2cc([C@@H](Nc3cc(Cl)c4ncc(C#N)c(Nc5ccc(F)c(Cl)c5)c4c3)c3cc(Cl)cs3)nn2)CC1` [Example 381, (R)-8-chloro-4-((3-chloro-4-fluoro-phenyl)amino)-6-(((4-chlorothiophen-2-yl)(1-(1-ethylpiperidin-4-yl)-1H-1,2,3-triazol-4-yl)methyl)amino)-quinoline-3-carbonitrile] are 7 nM and 303 nM.
On the same counts, the results for `CC(C)(C)CNc1c(C#N)cnc2c(C#N)cc(N[C@H](c3cn(C4(C)CC4)nn3)c3cccc4ncsc34)cc12` [Example 435, (S)-6-((benzo[d]thiazol-7-yl(1-(1-methylcyclopropyl)-1H-1,2,3-triazol-4-yl)methyl)amino)-4-(neopentylamino)-quinoline-3,8-dicarbonitrile] are 1 nM and 24 nM.
With `Cc1nc(F)ccc1[C@H](Nc1cc(C#N)c2ncc(C#N)c(NCC(C)(C)C(F)(F)F)c2c1)c1cn(C2(C(F)F)CC2)nn1` [Example 832, (S)-6-(((1-(l-(difluoromethyl)-cyclopropyl)-1H-1,2,3-triazol-4-yl)(6-fluoro-2-methylpyridin-3-yl)methyl)amino)-4-((3,3,3-trifluoro-2,2-dimethylpropyl)amino)quinoline-3,8-dicarbonitrile], in test [1] (setting [7]), the IC50 was 2 nM. In addition, the EC50 in test [2] (setting [8]) came out at 44 nM.
For `CC(C)(C)CNc1c(C#N)cnc2c(S(C)(=O)=O)cc(N[C@H](c3cn(C4(C(F)(F)F)CC4)nn3)c3cccc4ncsc34)cc12` [Example 442, (S)-6-((benzo[d]thiazol-7-yl(1-(1-(trifluoromethyl)cyclopropyl)-1H-1,2,3-triazol-4-yl)methyl)amino)-8-(methyl-sulfonyl)-4-(neopentylamino)quinoline-3-carbonitrile], the IC50 in test [1] (setting [9]) was 56 nM. Besides, the EC50 in test [2] (setting [10]) was found to be 2690 nM.
The corresponding values for `CC(C)(C)N1CCC(n2cc([C@@H](Nc3cc(Cl)c4ncc(C#N)c(Nc5ccc(Cl)c(Cl)c5F)c4c3)c3csc4c3CCN(C3COC3)C4)nn2)CC1` [Example 223, (S)-6-(((1-(1-(tert-butyl)piperidin-4-yl)-1H-1,2,3-triazol-4-yl)(6-(oxetan-3-yl)-4,5,6,7-tetrahydrothieno[2,3-c]pyridin-3-yl)methyl)amino)-8-chloro-4-((3,4-dichloro-2-fluorophenyl)amino)quinoline-3-carbonitrile] are 7 nM and 94 nM.
The corresponding values for `CCN1CCC(n2cc([C@@H](Nc3cc(Cl)c4ncc(C#N)c(Nc5ccc(F)c(Cl)c5)c4c3)c3cncs3)nn2)CC1` [Example 378, (R)-8-chloro-4-((3-chloro-4-fluoro-phenyl)amino)-6-(((1-(1-ethylpiperidin-4-yl)-1H-1,2,3-triazol-4-yl)(thiazol-5-yl)methyl)amino)quinoline-3-carbonitrile] are 2 nM and 168 nM.
The corresponding values for `CC(C)(C)CNc1c(C#N)cnc2c(C#N)cc(N[C@@H](c3cn(C4CC4)nn3)c3cccc4ncsc34)cc12` [Example 410, (R)-6-((benzo[d]thiazol-7-yl(1-cyclopropyl-1H-1,2,3-triazol-4-yl)methyl)amino)-4-(neopentyl-amino)quinoline-3,8-dicarbonitrile] are 113 nM and 1000 nM.
`Cc1nc(F)ccc1[C@H](Nc1cc(Cl)c2ncc(C#N)c(NCC(C)(C)C(F)(F)F)c2c1)c1nnn(C2(C)CC2)c1F` [Example 959, (S)-8-chloro-6-(((5-fluoro-1-(1-methylcyclopropyl)-1H-1,2,3-triazol-4-yl)(6-fluoro-2-methylpyridin-3-yl)methyl)amino)-4-((3,3,3-trifluoro-2,2-dimethylpropyl)amino)quinoline-3-carbonitrile] had an IC50 in test [1] (setting [5]) of 3 nM. In test [2] (setting [6]), the EC50 was 41 nM.
For the compound `CC[C@@H](Nc1c(C#N)cnc2c(C#N)cc(N[C@H](c3cn(C4CC4)nn3)c3cccc4ncsc34)cc12)c1ccccc1` [Example 411, 6-(((S)-benzo[d]thiazol-7-yl(1-cyclopropyl-1H-1,2,3-triazol-4-yl)methyl)amino)-4-(((R)-1-phenylpropyl)amino)quinoline-3,8-dicarbonitrile], the IC50 in test [1] (setting [9]) came out at 5 nM. For the same compound, the EC50 in test [2] (setting [10]) worked out at 76 nM.
The corresponding values for `[2H]C(Nc1cc(Cl)c2ncc(C#N)c(N[C@H](CCC#N)c3ccccc3)c2c1)(c1cn(C2(C(F)(F)F)CC2)nn1)c1ccc(F)nc1C` (stereo partly drawn) [Example 413, 8-chloro-4-(((R)-3-cyano-1-phenyl-propyl)amino)-6-(((6-fluoro-2-methyl-pyridin-3-yl)(1-(1-(trifluoromethyl)-cyclopropyl)-1H-1,2,3-triazol-4-yl)methyl-d)amino)quinoline-3-carbonitrile] are 4 nM and 44 nM.
The corresponding values for `Cc1nc(F)ccc1[C@H](Nc1cc(C#N)c2ncc(C#N)c(NCC(C)(C)C)c2c1)c1cn(C(C)(C)C(F)(F)F)nn1` [Example 591, (S)-6-(((6-fluoro-2-methylpyridin-3-yl)(1-(1,1,1-trifluoro-2-methylpropan-2-yl)-1H-1,2,3-triazol-4-yl)methyl)amino)-4-(neopentylamino)quinoline-3,8-dicarbonitrile] are 5 nM and 106 nM.
`Cc1nc(F)ccc1[C@H](Nc1cc(Cl)c2ncc(C#N)c(NCC(C)(C)C(F)(F)F)c2c1)c1nnn([C@@H](C)CF)c1F` [Example 955, 8-chloro-6-(((S)-(5-fluoro-1-((S)-1-fluoropropan-2-yl)-1H-1,2,3-triazol-4-yl)(6-fluoro-2-methylpyridin-3-yl)methyl)amino)-4-((3,3,3-trifluoro-2,2-dimethylpropyl)amino)quinoline-3-carbonitrile] had an IC50 in test [1] (setting [5]) of 6 nM. In test [2] (setting [6]), the EC50 was 50 nM.
`Cn1ncc2c([C@H](Nc3cc(Cl)c4ncc(C#N)c(NCC(C)(C)C)c4c3)c3cn(C4(C(F)F)CC4)nn3)cccc21` [Example 496, (S)-8-chloro-6-(((1-(1-(difluoromethyl)-cyclopropyl)-1H-1,2,3-triazol-4-yl)(1-methyl-1H-indazol-4-yl)methyl)amino)-4-(neopentylamino)quinoline-3-carbonitrile] showed an IC50 in test [1] (setting [9]) of 6 nM. In addition, in test [2] (setting [10]), the concentration giving a half-maximal response (EC50) turned out to be 467 nM.
Compound `Cc1nc(F)ccc1[C@H](Nc1cc(Cl)c2ncc(C#N)c(NCC(C)(C)C)c2c1)c1nnn(C2(C(F)F)CC2)c1I` [Example 945, (S)-8-chloro-6-(((1-(1-(difluoromethyl)cyclopropyl)-5-iodo-1H-1,2,3-triazol-4-yl)(6-fluoro-2-methylpyridin-3-yl)methyl)amino)-4-(neopentylamino)quinoline-3-carbonitrile] displayed an IC50 in test [1] (setting [5]) of 17 nM. Also, the EC50 in test [2] (setting [6]) worked out at 142 nM.
For `Cn1ccc2c([C@H](Nc3cc(Cl)c4ncc(C#N)c(NCC(C)(C)C(F)(F)F)c4c3)c3cn(C4(C)CC4)nn3)cccc2c1=O` [Example 781, (S)-8-chloro-6-(((2-methyl-1-oxo-1,2-dihydroiso-quinolin-5-yl)(1-(1-methylcyclopropyl)-1H-1,2,3-triazol-4-yl)methyl)amino)-4-((3,3,3-trifluoro-2,2-dimethylpropyl)amino)quinoline-3-carbonitrile], the IC50 in test [1] (setting [3]) is 2 nM. Besides, the EC50 in test [2] (setting [4]) was determined as 22 nM.
`CC(C)(CNc1c(C#N)cnc2c(C#N)cc(N[C@H](c3cn(C4(C(F)F)CC4)nn3)c3cccc4c(=O)[nH]ccc34)cc12)C(F)(F)F` [Example 842]: the IC50 in test [1] (setting [7]) is 3 nM. Further, the EC50 in test [2] (setting [8]) amounted to 563 nM.
`N#Cc1cnc2c(Cl)cc(NC(c3cccnc3)c3cn(C4CCNCC4)nn3)cc2c1Nc1ccc(F)c(Cl)c1` (centres unmarked) [Example 405, 8-chloro-4-((3-chloro-4-fluoro-phenyl)amino)-6-(((1-(piperidin-4-yl)-1H-1,2,3-triazol-4-yl)(pyridin-3-yl)methyl)amino)quinoline-3-carbonitrile] returned an IC50 in test [1] (setting [9]) of 2 nM. The concentration giving a half-maximal response (EC50) in test [2] (setting [10]) was determined as 1040 nM.
The corresponding values for `CC(C)(O)[C@@H](Nc1c(C#N)cnc2c(Cl)cc(N[C@@H](c3cccnc3)c3c[nH]nn3)cc12)c1ccccc1` [Example 186, 8-chloro-4-(((S)-2-hydroxy-2-methyl-1-phenylpropyl)amino)-6-(((S)-pyridin-3-yl(1H-1,2,3-triazol-4-yl)methyl)amino)quinoline-3-carbonitrile] are 118 nM and 6620 nM.
